ChEMBL document CHEMBL4507299, “Data for DCP probe PF-04554878” (2021)

Key:
[1] = molecular target: Casein kinase I isoform gamma-3 (Homo sapiens) (UniProt Q9Y6M4)
[2] = molecular target: Serine/threonine-protein kinase MRCK gamma (Homo sapiens) (UniProt Q6DT37)
[3] = molecular target: T1, Aurora kinase A (Homo sapiens) (UniProt O14965)
T1 sequence (whole entry): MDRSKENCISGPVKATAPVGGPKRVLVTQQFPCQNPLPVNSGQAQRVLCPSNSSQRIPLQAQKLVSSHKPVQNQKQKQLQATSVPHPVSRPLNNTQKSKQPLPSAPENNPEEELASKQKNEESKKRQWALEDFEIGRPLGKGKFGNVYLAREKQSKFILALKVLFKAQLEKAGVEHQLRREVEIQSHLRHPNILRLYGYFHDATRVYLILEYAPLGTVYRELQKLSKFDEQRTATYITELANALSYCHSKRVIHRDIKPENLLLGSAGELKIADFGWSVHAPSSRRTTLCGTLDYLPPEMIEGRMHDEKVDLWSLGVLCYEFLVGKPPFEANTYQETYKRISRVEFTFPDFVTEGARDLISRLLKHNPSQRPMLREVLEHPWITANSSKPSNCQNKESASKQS

[4] = molecular target: Tyrosine-protein kinase JAK3 (Homo sapiens, UniProt P52333); assay: JAK3 Invitrogen kinase activity assay
[5] = molecular target: AP2-associated protein kinase 1 (Homo sapiens) (UniProt Q2M2I8)
[6] = tested on: Tyrosine-protein kinase ABL1 (Homo sapiens), P00519 [H396P]
[7] = molecular target: Tyrosine-protein kinase CSK (Homo sapiens) (UniProt P41240)
[8] = molecular target: Protein kinase C eta type (Homo sapiens) (UniProt P24723)
[9] = molecular target: Serine/threonine-protein kinase NIM1 (Homo sapiens) (UniProt Q8IY84)
Sequence of Serine/threonine-protein kinase NIM1 (Homo sapiens) (Q8IY84 whole entry): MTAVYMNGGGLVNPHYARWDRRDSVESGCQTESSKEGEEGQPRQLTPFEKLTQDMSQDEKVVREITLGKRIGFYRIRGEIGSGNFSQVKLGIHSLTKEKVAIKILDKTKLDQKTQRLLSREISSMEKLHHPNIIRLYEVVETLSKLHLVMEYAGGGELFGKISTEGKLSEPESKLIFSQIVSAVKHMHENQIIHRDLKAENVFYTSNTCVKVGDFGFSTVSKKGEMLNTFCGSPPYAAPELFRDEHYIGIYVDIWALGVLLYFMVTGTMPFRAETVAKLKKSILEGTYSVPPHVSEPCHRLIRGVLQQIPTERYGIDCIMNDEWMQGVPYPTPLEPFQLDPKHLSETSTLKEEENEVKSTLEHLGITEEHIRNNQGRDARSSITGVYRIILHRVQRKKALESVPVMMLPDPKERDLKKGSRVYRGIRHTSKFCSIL

[10] = molecular target: Tyrosine-protein kinase JAK2 (Homo sapiens) (UniProt O60674)
[11] = molecular target: cAMP-dependent protein kinase catalytic subunit alpha (Homo sapiens) (UniProt P17612)
[12] = molecular target: Mitogen-activated protein kinase kinase kinase 2 (Homo sapiens) (UniProt Q9Y2U5)
[13] = molecular target: cGMP-dependent protein kinase 1 (Homo sapiens) (UniProt Q13976)
[14] = molecular target: 5-hydroxytryptamine receptor 3A (Homo sapiens) (UniProt P46098); settings: Compound concentration 10.0 uM
[15] = molecular target: Sodium-dependent serotonin transporter (Homo sapiens) (UniProt P31645); settings: Compound concentration 10.0 uM
Sequence of Sodium-dependent serotonin transporter (Homo sapiens) (P31645 whole entry, looked up): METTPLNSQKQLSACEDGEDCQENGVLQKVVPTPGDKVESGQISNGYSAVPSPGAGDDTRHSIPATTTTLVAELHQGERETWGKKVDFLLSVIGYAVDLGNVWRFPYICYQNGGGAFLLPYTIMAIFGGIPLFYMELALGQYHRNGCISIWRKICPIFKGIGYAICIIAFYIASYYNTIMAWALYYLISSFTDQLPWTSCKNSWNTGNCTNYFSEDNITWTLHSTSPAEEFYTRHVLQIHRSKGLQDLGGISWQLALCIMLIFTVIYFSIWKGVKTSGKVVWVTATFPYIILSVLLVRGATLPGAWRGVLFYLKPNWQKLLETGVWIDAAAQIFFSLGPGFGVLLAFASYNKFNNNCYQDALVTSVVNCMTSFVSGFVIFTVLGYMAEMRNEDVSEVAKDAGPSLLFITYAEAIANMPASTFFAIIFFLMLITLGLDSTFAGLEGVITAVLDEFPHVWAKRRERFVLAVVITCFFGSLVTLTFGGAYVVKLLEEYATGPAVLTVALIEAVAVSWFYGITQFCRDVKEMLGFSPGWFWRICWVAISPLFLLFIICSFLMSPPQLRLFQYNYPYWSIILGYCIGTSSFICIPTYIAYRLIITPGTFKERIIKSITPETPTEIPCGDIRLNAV

[16] = molecular target: Serine/threonine-protein kinase PRP4 homolog (Homo sapiens) (UniProt Q13523)
Sequence of Serine/threonine-protein kinase PRP4 homolog (Homo sapiens) (Q13523 whole entry, canonical isoform): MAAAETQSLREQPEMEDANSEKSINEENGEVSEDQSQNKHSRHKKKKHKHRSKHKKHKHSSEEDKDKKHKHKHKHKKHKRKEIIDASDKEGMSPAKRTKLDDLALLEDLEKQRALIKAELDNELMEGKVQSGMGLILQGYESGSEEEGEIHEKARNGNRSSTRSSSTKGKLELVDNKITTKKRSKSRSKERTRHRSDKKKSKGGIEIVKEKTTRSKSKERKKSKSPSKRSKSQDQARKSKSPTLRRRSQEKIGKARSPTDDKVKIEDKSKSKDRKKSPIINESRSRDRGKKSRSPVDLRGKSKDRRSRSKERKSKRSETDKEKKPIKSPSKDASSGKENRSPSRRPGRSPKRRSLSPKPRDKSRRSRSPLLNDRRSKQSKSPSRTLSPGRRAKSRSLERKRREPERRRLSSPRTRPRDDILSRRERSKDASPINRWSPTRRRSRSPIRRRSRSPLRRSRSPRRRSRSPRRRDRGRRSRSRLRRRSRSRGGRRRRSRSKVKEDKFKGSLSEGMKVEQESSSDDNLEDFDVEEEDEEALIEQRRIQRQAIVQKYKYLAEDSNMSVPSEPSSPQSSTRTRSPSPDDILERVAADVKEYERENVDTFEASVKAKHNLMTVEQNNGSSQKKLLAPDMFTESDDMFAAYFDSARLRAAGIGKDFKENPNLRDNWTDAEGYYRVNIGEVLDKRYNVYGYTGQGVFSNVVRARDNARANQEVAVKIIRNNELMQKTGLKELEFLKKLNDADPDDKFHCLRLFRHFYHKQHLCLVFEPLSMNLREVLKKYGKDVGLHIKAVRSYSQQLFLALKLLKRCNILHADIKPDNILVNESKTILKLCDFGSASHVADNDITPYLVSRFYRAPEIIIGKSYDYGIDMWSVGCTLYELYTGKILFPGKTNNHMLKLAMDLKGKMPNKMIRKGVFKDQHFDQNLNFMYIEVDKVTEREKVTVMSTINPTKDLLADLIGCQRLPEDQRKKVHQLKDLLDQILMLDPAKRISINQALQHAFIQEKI

[17] = tested on: Phosphatidylinositol 4,5-bisphosphate 3-kinase catalytic subunit alpha isoform (Homo sapiens), P42336 [H1047Y]
[18] = molecular target: Interleukin-1 receptor-associated kinase 4 (Homo sapiens) (UniProt Q9NWZ3)
[19] = molecular target: Serine/threonine-protein kinase STK11 (Homo sapiens) (UniProt Q15831)
[20] = molecular target: Serine/threonine-protein kinase WNK2 (Homo sapiens) (UniProt Q9Y3S1)
[21] = molecular target: Sodium-dependent dopamine transporter (Homo sapiens) (UniProt Q01959); settings: Compound concentration 10.0 uM
[22] = molecular target: Ribosomal protein S6 kinase alpha-5 (Homo sapiens) (UniProt O75582)
[23] = molecular target: RAC-alpha serine/threonine-protein kinase (Homo sapiens) (UniProt P31749); assay: AKT1 Invitrogen kinase activity assay; settings: Compound concentration 1.0 uM
[24] = molecular target: Rho-associated protein kinase 2 (Homo sapiens) (UniProt O75116)
[25] = molecular target: Serine/threonine-protein kinase 24 (Homo sapiens) (UniProt Q9Y6E0)
[26] = tested on: Epidermal growth factor receptor (Homo sapiens), P00533 [UNDEFINED MUTATION]
Sequence of Epidermal growth factor receptor (Homo sapiens), P00533 [UNDEFINED MUTATION] (P00533 whole entry, looked up, change not shown): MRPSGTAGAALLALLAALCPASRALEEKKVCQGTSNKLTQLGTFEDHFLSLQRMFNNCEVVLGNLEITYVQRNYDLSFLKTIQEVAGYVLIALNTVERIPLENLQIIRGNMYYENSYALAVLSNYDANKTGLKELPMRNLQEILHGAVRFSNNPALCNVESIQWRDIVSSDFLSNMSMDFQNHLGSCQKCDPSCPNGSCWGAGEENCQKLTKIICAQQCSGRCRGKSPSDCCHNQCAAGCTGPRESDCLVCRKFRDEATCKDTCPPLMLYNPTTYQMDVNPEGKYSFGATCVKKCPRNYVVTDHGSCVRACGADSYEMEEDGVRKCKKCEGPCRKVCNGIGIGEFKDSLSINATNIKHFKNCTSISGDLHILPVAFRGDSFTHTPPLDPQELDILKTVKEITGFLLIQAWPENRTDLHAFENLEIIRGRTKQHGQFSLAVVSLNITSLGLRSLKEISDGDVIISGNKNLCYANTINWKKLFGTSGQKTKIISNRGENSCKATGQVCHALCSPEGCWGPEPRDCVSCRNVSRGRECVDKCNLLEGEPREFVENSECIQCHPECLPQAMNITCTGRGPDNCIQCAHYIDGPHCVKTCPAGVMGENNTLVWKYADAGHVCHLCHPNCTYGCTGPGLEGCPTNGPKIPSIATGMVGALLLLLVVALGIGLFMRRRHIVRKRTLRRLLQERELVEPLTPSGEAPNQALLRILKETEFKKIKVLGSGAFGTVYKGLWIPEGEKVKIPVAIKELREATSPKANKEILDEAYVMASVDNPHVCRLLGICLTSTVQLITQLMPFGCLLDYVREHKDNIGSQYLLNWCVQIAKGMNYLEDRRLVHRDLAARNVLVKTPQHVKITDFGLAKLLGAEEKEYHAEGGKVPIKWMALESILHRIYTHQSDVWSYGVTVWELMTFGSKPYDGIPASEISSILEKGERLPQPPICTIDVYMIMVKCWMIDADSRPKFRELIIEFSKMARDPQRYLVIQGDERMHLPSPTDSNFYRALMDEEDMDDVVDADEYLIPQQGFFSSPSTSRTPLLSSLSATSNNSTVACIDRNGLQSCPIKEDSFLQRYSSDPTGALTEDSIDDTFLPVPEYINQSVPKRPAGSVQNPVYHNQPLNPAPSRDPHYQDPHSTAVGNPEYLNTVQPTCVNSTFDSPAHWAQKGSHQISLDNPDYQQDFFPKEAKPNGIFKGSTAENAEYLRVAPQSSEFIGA

[27] = molecular target: Proto-oncogene tyrosine-protein kinase ROS (Homo sapiens) (UniProt P08922)
[28] = tested on: Receptor-type tyrosine-protein kinase FLT3 (Homo sapiens), P36888 [N841I]
[29] = molecular target: Vascular endothelial growth factor receptor 3 (Homo sapiens) (UniProt P35916)
[30] = tested on: Proto-oncogene tyrosine-protein kinase receptor Ret (Homo sapiens), P07949 [V804M]
Sequence of Proto-oncogene tyrosine-protein kinase receptor Ret (Homo sapiens), P07949 [V804M] (P07949 whole entry V804M): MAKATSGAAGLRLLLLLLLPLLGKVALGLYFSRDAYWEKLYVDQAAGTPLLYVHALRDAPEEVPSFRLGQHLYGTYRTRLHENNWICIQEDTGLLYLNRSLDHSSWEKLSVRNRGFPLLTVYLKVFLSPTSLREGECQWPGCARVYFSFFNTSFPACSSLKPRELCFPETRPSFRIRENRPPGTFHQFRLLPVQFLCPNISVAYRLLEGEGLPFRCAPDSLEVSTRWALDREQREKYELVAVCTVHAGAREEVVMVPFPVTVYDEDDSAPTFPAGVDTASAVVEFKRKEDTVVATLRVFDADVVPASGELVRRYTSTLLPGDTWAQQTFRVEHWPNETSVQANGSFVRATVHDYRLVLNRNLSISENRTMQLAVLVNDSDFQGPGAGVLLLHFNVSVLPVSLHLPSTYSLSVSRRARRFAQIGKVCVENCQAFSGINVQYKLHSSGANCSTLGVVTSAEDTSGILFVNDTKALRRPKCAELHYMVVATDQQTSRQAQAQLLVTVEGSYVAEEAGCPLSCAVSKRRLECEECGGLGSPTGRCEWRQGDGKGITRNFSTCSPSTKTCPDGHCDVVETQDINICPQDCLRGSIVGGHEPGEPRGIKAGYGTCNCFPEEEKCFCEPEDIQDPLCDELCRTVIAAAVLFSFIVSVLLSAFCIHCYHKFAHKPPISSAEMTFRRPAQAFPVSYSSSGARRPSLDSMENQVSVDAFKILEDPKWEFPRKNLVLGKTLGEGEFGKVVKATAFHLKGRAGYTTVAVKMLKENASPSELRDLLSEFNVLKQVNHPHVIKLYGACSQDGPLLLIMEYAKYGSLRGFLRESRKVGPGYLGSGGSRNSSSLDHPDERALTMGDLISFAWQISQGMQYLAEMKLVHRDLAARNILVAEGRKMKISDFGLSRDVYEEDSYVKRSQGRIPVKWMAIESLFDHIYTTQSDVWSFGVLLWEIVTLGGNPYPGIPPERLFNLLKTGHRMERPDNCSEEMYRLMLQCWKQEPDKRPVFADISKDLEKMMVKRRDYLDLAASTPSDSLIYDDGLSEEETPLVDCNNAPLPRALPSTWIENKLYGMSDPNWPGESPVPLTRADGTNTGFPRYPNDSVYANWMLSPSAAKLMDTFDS

[31] = molecular target: Mitogen-activated protein kinase kinase kinase kinase 2 (Homo sapiens) (UniProt Q12851)
[32] = molecular target: Testis-specific serine/threonine-protein kinase 1 (Homo sapiens) (UniProt Q9BXA7)
Sequence of Testis-specific serine/threonine-protein kinase 1 (Homo sapiens) (Q9BXA7 whole entry): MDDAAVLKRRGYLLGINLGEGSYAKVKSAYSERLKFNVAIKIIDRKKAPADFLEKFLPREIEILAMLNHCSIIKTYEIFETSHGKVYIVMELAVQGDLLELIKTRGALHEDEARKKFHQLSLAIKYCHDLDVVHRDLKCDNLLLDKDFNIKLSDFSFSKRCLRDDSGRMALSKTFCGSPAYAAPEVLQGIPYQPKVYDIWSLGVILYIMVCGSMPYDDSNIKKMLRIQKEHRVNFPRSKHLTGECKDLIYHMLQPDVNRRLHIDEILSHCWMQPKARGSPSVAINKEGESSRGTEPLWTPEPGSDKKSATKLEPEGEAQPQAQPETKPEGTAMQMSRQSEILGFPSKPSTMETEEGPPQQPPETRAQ

[33] = tested on: Epidermal growth factor receptor (Homo sapiens), P00533 [UNDEFINED MUTATION]; remark: listed apart in the source
[34] = molecular target: Cyclin-dependent kinase 13 (Homo sapiens) (UniProt Q14004)
[35] = molecular target: Beta-2 adrenergic receptor (Homo sapiens) (UniProt P07550); settings: Compound concentration 10.0 uM
[36] = Compound concentration 100.0 nM
[37] = Compound concentration 1000.0 nM

Compound: CNC(=O)c1ccc(Nc2ncc(C(F)(F)F)c(NCc3nccnc3N(C)S(C)(=O)=O)n2)cc1 [DEFACTINIB]
- residual activity [1, 36]: 100%
- residual activity [2, 36]: 80%
- residual activity [3, 36]: 50%
- IC50 [4]: > 1000 nM
- residual activity [5, 36]: 80%
- residual activity [6, 36]: 100%
- residual activity [7, 36]: 100%
- residual activity [8, 36]: 86%
- residual activity [9, 36]: 100%
- residual activity [10, 36]: 4.8%
- residual activity [11, 36]: 100%
- residual activity [12, 36]: 65%
- residual activity [13, 36]: 100%
- inhibition [14]: 6.5%
- inhibition [15]: 2.45%
- residual activity [16, 36]: 69%
- residual activity [17, 36]: 100%
- residual activity [18, 36]: 92%
- residual activity [19, 36]: 100%
- residual activity [20, 36]: 94%
- inhibition [21]: -6.06%
- residual activity [22, 36]: 80%
- inhibition [23]: 4%
- residual activity [24, 36]: 100%
- residual activity [25, 36]: 54%
- residual activity [26, 36]: 91%
- residual activity [27, 36]: 58%
- residual activity [28, 36]: 0%
- residual activity [29, 36]: 39%
- residual activity [30, 36]: 30%
- residual activity [31, 36]: 100%
- residual activity [32, 36]: 64%
- residual activity [33, 36]: 82%
- residual activity [34, 36]: 94%

Compound: CN(c1ccnc(CNc2nc(Nc3ccc4c(c3)CC(=O)N4)ncc2C(F)(F)F)n1)S(C)(=O)=O [PF-00911705]
- residual activity [1, 37]: 100%
- residual activity [2, 37]: 93%
- residual activity [3, 37]: 14%
- residual activity [5, 37]: 27%
- residual activity [6, 37]: 46%
- residual activity [7, 37]: 74%
- residual activity [8, 37]: 100%
- residual activity [9, 37]: 9.5%
- residual activity [10, 37]: 3.8%
- residual activity [11, 37]: 81%
- residual activity [12, 37]: 9.7%
- residual activity [13, 37]: 100%
- inhibition [14]: 1.24%
- inhibition [15]: 33.5%
- residual activity [16, 37]: 23%
- residual activity [17, 37]: 85%
- residual activity [18, 37]: 50%
- inhibition [35]: 15.3%
- residual activity [19, 37]: 72%
- residual activity [20, 37]: 22%
- residual activity [22, 37]: 78%
- residual activity [24, 37]: 69%
- residual activity [25, 37]: 93%
- residual activity [26, 37]: 44%
- residual activity [27, 37]: 43%
- residual activity [28, 37]: 0%
- residual activity [29, 37]: 92%
- residual activity [30, 37]: 31%
- residual activity [31, 37]: 39%
- residual activity [32, 37]: 56%
- residual activity [33, 37]: 57%
- residual activity [34, 37]: 82%
